{"source": "patent US4831043A", "about": "“Dopaminergic benzimidazol-2-ones” (Roussel Uclaf, priority 1987, dated 1989)", "key": {"dopaminergic receptors": {"target": "T1, dopaminergic receptors (Rattus norvegicus, UniProt P61169)", "T1 construct": "The striated bodies removed from the brains of 6 male rats; from tissue; host or cells: rat striatum (striated bodies), membrane preparation", "T1 sequence (P61169 whole entry)": "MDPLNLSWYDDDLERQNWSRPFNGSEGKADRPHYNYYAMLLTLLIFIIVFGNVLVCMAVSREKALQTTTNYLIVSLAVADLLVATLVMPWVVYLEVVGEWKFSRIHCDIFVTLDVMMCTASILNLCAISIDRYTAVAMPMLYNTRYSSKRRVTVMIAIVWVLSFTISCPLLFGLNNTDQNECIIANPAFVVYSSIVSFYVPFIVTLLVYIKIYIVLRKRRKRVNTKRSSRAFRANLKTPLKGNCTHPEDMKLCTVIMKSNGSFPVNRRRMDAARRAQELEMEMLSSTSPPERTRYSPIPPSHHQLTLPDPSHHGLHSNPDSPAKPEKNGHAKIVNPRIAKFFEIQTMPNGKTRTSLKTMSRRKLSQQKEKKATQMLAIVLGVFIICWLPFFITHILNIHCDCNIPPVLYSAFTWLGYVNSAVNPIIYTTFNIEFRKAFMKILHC", "assay": "Affinity for the dopaminergic receptors (displacement of 3H spiroperidol, striated bodies)", "format": "binding, rats", "protocol": "(4) Affinity for the dopaminergic receptors\nThe striated bodies removed from the brains of 6 male rats weighing an average of 150 g were homogenized to the twentieth (weight/volume) in 0.32M sucrose. After centrifuging the homogenized mixture at 1,000 g for 10 minutes at 0° C. the supernatant was centrifuged at 30,000 g for 15 minutes at +4° C. The residue was taken up in 25 ml of Tris HCl 50 mM buffer, pH 7.7, and centrifuged at 30,000 g for 15 minutes at +4° C. The new residue was taken up in 50 ml of Krebs Tris HCl buffer pH 7.3, and the suspension was pre-incubated fo 10 minutes at 37° C. It was then incubated for 20 minutes on a water-bath at +37° C. in the presence of 3H spinoperidol alone, with an excess of haloperidol and with increasing concentrations of the product under test. The incubated suspensions were filtered on Whatman GF/C and the filters were washed three times with 5 ml of Tris HCl 50 mM buffer. The radio-activity of the filters was measured by liquid scintillation.\nThe non-specific fixation were determined in parallel by incubation of 3H spiroperidol in the presence of an excess of haloperidol and the following results were obtained. The result was expressed directly in 50% inhibiting concentrations, (IC50 : concentration of product studied, expressed in nM, necessary to displace 50% of the specific radio-activity fixed on the receptor studied)."}, "mice": {"tested_on": "mice", "assay": "Study of the acute toxicity (LDO, oral route)", "format": "in vivo", "protocol": "(3) Study of the acute toxicity\nThe lethal doses LDO of the different compounds tested were evaluated after administration by oral route in mice. The maximum dose not causing any mortality in 8 days was called LDO and the following results were obtained: […]"}, "[1]": {"tested_on": "average arterial pressure", "assay": "Test of revealing a direct vasodilatation activity (demedulated rats under angiotensine II perfusion)", "format": "in vivo, Rats of Sprague-Dawley strain", "conditions": "Rattus norvegicus, intravenous cumulative doses, tested between 0.001 and 1 mg/kg, read-out: dose from which vasodilatation effect starts", "protocol": "Rats of Sprague-Dawley strain with a weight of 320-350 g were anesthetized with pentobarbital (50 mg/kg by interperitoneal injection). After insertion of a carotid catheter to measure the arterial pressure and a jugular catheter for the injection of the compounds to be stidied as well as the eventual antagonists, the animals were demedulated by a steel rod which was introduced by the right orbital hole and passed down the whole length of the spinal marrow. The animals were then placed immediately under assisted respiration and some minutes after stabilization of arterial pressure, the animals received an intravenous perfusion of angiotensine II of 0.50 micrograms/kg per minute to increase their average pressure by about 100 mm of mercury. After obtaining a plateau, the test compound was injected intravenously every 2 minutes and in cumulative doses. The percentages of fall of the average arterial pressure so obtained enabled a curve of dose-response to be drawn reflecting the vasodilatation activity of the molecule studied. Previous treatment of the animals by different antagonists enabled the mechanism of action of this molecule to be distinguished. The products were tested between 0.001 and 1 mg/kg and domperidone and propanolol were used as antagonists."}, "arterial pressure": {"tested_on": "arterial pressure", "assay": "Study of the hypotensive activity on anesthetized \"normotendu\" rat", "format": "in vivo, Male Sprague-Dawley rats (CR)", "conditions": "jugular vein injection", "protocol": "(5) Study of the hypotensive activity on anesthetized \"normotendu\" rat.\nMale Sprague-Dawley rats (CR) were anesthetized intraperitoneally with sodium pentobarbital (60 mg/Kg). A jugular vein was catheterized for injection of the product and a carotid artery was catheterized for registration of the arterial pressure. The product to be tested was dissolved in 10% of ethanol and then injected at a volume of 1 ml/kg. […] The following table indicates the variations of the arterial pressure after administration of the product tested expressed as a percentage of the initial control arterial pressure."}, "[2]": {"tested_on": "nigrostriated dopaminergic bundle", "assay": "Rotational behaviour after unilateral lesion of the nigrostriated bundle by 6-hydroxydopamine", "format": "in vivo, rats", "protocol": "(1) Rotational behaviour after unilateral lesion of the nigrostriated bundle by 6-hydroxydopamine.\nMale rats of about 220 g weight were injured in the nigrostriated dopaminergic bundle by a modified Ungerstedt's method [Acta. physiol. Scand. 1971, 82 suppl. 367-69 93] by unilateral injection of […] of 6-hydroxydopamine hydrochloride in solution in 4 microliters of physiological solution containing 0.4 mg/ml of ascorbic acid. The products studied were administered intraperitoneally and the treated animals were placed individually in a rotameter which enabled the counting of the number of rotations made by each animal in the direction opposite to that of the injured side."}}, "note": "Structures can show the parent of a compound that is named as a salt. Where two headings read alike, the source gives them in different places.", "data": [{"smiles": "O=c1[nH]c2cccc(C3CCCNC3)c2[nH]1", "note": "(stereo not shown) [Example 1, 1,3-dihydro-4-(3-piperidinyl)-2H-benzimidazol-2-one]", "values": [{"measurement": "IC50", "setting": "dopaminergic receptors; rat striated bodies, 3H spiroperidol, 20 minutes at 37° C., pH 7.3, read-out: IC50 (displacement of 50% of the specific radio-activity fixed on the receptor)", "value": 172, "unit": "nM"}, {"measurement": "LDO (maximum dose not causing any mortality in 8 days)", "setting": "mice", "value": "greater than 400 mg/kg"}]}, {"smiles": "Br.O=c1[nH]c2c(O)ccc(C3CCCNC3)c2[nH]1", "note": "(stereo not shown) [Example 4, 1,3-dihydro-4-hydroxy-7-(3-piperidinyl)-2H-benzimidazol-2-one hydrobromide]", "values": [{"measurement": "IC50", "setting": "dopaminergic receptors", "value": 300, "unit": "nM"}, {"measurement": "LDO (maximum dose not causing any mortality in 8 days)", "setting": "mice", "value": "greater than 400 mg/kg"}, {"measurement": "minimal effective dose", "setting": "[1]", "value": 0.03, "unit": "mg/kg"}, {"measurement": "variation of the arterial pressure 30 min. after administration", "setting": "arterial pressure; dose 0.1 mg/kg", "value": "-17 percentage of the initial cont"}]}, {"smiles": "Br.CCCN1CCCC(c2ccc(O)c3[nH]c(=O)[nH]c23)C1", "note": "(stereo not shown) [Example 5, 1,3-dihydro-4-hydroxy-7-(1-propyl-3-piperidinyl)-2H-benzimidazol-2-one hydrobromide]", "values": [{"measurement": "variation of the arterial pressure 5 min. after administration", "setting": "arterial pressure; dose 1 mg/kg", "value": "-19 percentage of the initial cont"}, {"measurement": "variation of the arterial pressure 30 min. after administration", "setting": "arterial pressure; dose 1 mg/kg", "value": "-19 percentage of the initial cont"}, {"measurement": "variation of the arterial pressure 5 min. after administration", "setting": "arterial pressure; dose 10 mg/kg", "value": "-23 percentage of the initial cont"}, {"measurement": "variation of the arterial pressure 30 min. after administration", "setting": "arterial pressure; dose 10 mg/kg", "value": "-21 percentage of the initial cont"}]}, {"smiles": "CN1CCCC(c2ccc(O)c3[nH]c(=O)[nH]c23)C1", "note": "(stereo not shown) [Example 6, 1,3-dihydro-4-hydroxy-7-(1-methyl-3-piperidinyl)-2H-benzimidazol-3-one hydrobromide]", "values": [{"measurement": "minimal effective dose", "setting": "[2]; Rattus norvegicus, ip, read-out: dose from which rotational behavior is induced", "value": 10, "unit": "mg/kg"}, {"measurement": "rotational behavior (activity)", "setting": "[2]; rats, intraperitoneal, dose of 5 mg/kg", "value": "inactive"}, {"measurement": "central dopaminergic agonist activity", "setting": "[2]; rats, intraperitoneal, conclusion from rotation model of very great sensitivity", "value": "weak"}]}]}
